We go through 13 compounds from ChEMBL document CHEMBL3045915, “Microwave-assisted, one-pot syntheses and fungicidal activity of polyfluorinated 2-benzylthiobenzothiazoles” (2006).

What all share (type): functional
One assay concerns Colletotrichum gossypii. Nature of the assay: Fungicidal activity against Colletotrichum gossypii assessed as inhibition of fungal growth at 50 ug/ml after 48 hr.
Another assay relates to Rhizoctonia solani. Nature of the assay: Fungicidal activity against Rhizoctonia solani assessed as inhibition of fungal growth at 50 ug/ml after 48 hr.
In another assay the test system is Dothiorella gregaria. Nature of the assay: Fungicidal activity against Dothiorella gregaria assessed as inhibition of fungal growth at 50 ug/ml after 48 hr.
A further assay relates to Botrytis cinerea. Put plainly: Fungicidal activity against Botryotinia fuckeliana Pers assessed as inhibition of fungal growth at 50 ug/ml after 48 hr.

The term inhibition denotes the relative decrease from the control value, in per cent.

Turning to `Fc1ccccc1CSc1nc2c(F)cccc2s1`, the inhibition at 50 µg/mL is 67% in the assay with Colletotrichum gossypii, 82% with Rhizoctonia solani, 78% in the assay on Dothiorella gregaria and 81% with Botrytis cinerea.
Regarding `Fc1cccc(F)c1CSc1nc2c(F)cccc2s1`, the inhibition at 50 µg/mL stood at 52% in the assay with Colletotrichum gossypii, 74% in the assay on Rhizoctonia solani, 63% in the assay on Dothiorella gregaria and 78% in the assay with Botrytis cinerea.
Taken in the same sequence, the figures for `Fc1ccc(CSc2nc3c(F)cccc3s2)cc1F` were 78%, 92%, 89% and 97%.
With `Fc1ccc2sc(SCc3ccccc3F)nc2c1`, the inhibition at 50 µg/mL with Colletotrichum gossypii amounted to 67%; in the assay with Rhizoctonia solani, 82%; in the assay with Dothiorella gregaria it was 81%; in the assay on Botrytis cinerea, 83%.
In the case of `Fc1ccc2sc(SCc3c(F)cccc3F)nc2c1`, the inhibition at 50 µg/mL is 56% in the assay with Colletotrichum gossypii, 80% in the assay with Rhizoctonia solani, 74% in the assay on Dothiorella gregaria and 78% with Botrytis cinerea.
Turning to `Fc1ccc2sc(SCc3ccc(F)c(F)c3)nc2c1`, the inhibition at 50 µg/mL was 74% in the assay with Colletotrichum gossypii, 86% in the assay with Rhizoctonia solani, 78% in the assay with Dothiorella gregaria and 69% in the assay on Botrytis cinerea.
Take `Fc1ccccc1CSc1nc2ccc(F)c(F)c2s1`: the inhibition at 50 µg/mL with Colletotrichum gossypii was found to be 74%; in the assay with Rhizoctonia solani it was 84%; with Dothiorella gregaria, 81%; in the assay on Botrytis cinerea, 86%.
Taken in the same sequence, the figures for `Fc1cccc(F)c1CSc1nc2ccc(F)c(F)c2s1` were 63%, 82%, 81% and 69%.
`Fc1ccc(CSc2nc3ccc(F)c(F)c3s2)cc1F`: the inhibition at 50 µg/mL was determined as 80% in the assay on Colletotrichum gossypii, 85% in the assay on Rhizoctonia solani, 85% in the assay with Dothiorella gregaria and 72% in the assay on Botrytis cinerea.
For the compound `Fc1ccccc1CSc1nc2c(Cl)cc(C(F)(F)F)cc2s1`, the inhibition at 50 µg/mL is 70% in the assay on Colletotrichum gossypii, 83% in the assay with Rhizoctonia solani, 70% in the assay on Dothiorella gregaria and 83% with Botrytis cinerea.
For the compound `Fc1cccc(F)c1CSc1nc2c(Cl)cc(C(F)(F)F)cc2s1`, the inhibition at 50 µg/mL in the assay with Colletotrichum gossypii turned out to be 44%; with Rhizoctonia solani, 69%; in the assay with Dothiorella gregaria it was 62%; with Botrytis cinerea it was 67%.
With `Fc1ccc(CSc2nc3c(Cl)cc(C(F)(F)F)cc3s2)cc1F`, the inhibition at 50 µg/mL in the assay with Colletotrichum gossypii worked out at 37%; in the assay on Rhizoctonia solani, 40%; with Dothiorella gregaria it was 35%; in the assay with Botrytis cinerea, 67%.
As to `CC(C)(C)C(=O)C(Oc1ccc(Cl)cc1)n1cncn1` (configuration not stated) [TRIADIMEFON], the inhibition at 50 µg/mL was 95% in the assay with Colletotrichum gossypii, 90% in the assay with Rhizoctonia solani, 61% in the assay with Dothiorella gregaria and 84% in the assay with Botrytis cinerea.
